The text below walks through data of the OPERA property sets (Mansouri et al. 2018).

Converted amounts (≈) assume the structure as drawn.

The conditions of the first data set: 20 °C.
`Cn1c(=O)c2nccnc2n(C)c1=O` registered a solubility of 34.7 mM (≈ 6670 µg/mL). `Oc1cncc2cccnc12` had a solubility of 22 mM (≈ 3220 µg/mL). Still for that read-out and setting: the value for `NC(=O)NC(Cc1ccccc1)C(=O)O` (racemic) was 8.02 mM (≈ 1670 µg/mL); that for `S=C=NCCc1ccccc1` was 0.674 mM (≈ 110 µg/mL).

The data set is the same for the next values; noted with them: 21 °C.
For `CCCCOc1cc(C(=O)NCCN(CC)CC)c2ccccc2n1`, the solubility was determined as 0.122 mM (≈ 42 µg/mL). Consider `COc1ccc2[nH]c(=O)cc(C(=O)O)c2c1`, for which the solubility came out at 0.776 mM (≈ 170 µg/mL).

Still in this data set, the particulars now being: 22 °C.
Molecule `Nc1c(Br)cc(Br)c(S(=O)(=O)O)c1Br` registered a solubility of 324 mM (≈ 133000 µg/mL). Same read-out and setting: to `COc1cc2nccnc2c(N)c1OC` belongs 19.5 mM (≈ 4000 µg/mL); to `NNc1cccc(S(=O)(=O)O)c1`, 149 mM (≈ 28000 µg/mL).

The molecule `O=S1(=O)NCc2ccccc21` showed a solubility of 30.1 mM (≈ 5100 µg/mL).

As to `O=C1CCCCCCCN1`, the solubility is 4290 mM (≈ 606000 µg/mL).

In the case of `Cc1ccc(N)cc1C`, the solubility came out at 31.4 mM (≈ 3800 µg/mL).

The data set is the same for the next values; noted with them: 25 °C.
In the case of `Nc1cc([N+](=O)[O-])ccc1I`, the solubility turned out to be 0.0379 mM (≈ 10 µg/mL). Molecule `CC(C)CC(=O)Oc1ccc([N+](=O)[O-])cc1` returned a solubility of 0.0403 mM (≈ 9 µg/mL). The molecule `O=C(O)c1ccc(O)cc1O` gave a solubility of 37.5 mM (≈ 5780 µg/mL). In turn, `CC(=O)OC[C@@H](O)[C@@H](OC(C)=O)[C@H](OC(C)=O)[C@H](C=O)OC(C)=O` yielded a solubility of 44.2 mM (≈ 15400 µg/mL). In the case of `NC(=O)c1cccc(S(N)(=O)=O)c1`, the solubility came to 6.99 mM (≈ 1400 µg/mL). `NC(=O)NCC(=O)NCC(=O)O`: the solubility is 126 mM (≈ 22100 µg/mL). Turning to `CCCOC(=O)c1cccnc1`, the solubility came to 57.5 mM (≈ 9500 µg/mL).

In turn, `O=C1C(=O)c2ccccc2-c2ccccc21` came in with a solubility of 0.036 mM (≈ 7.5 µg/mL). Molecule `CCCCOP(=O)(OCC)OCCCC` came in with a solubility of 14.3 mM (≈ 3400 µg/mL). `CN1c2ccccc2C(O)(c2ccccc2)c2ccccc21` returned a solubility of 0.125 mM (≈ 35.9 µg/mL). Molecule `Cc1cc(C)c(C)cn1` had a solubility of 165 mM (≈ 20000 µg/mL). The same measure, in the same setting: the value for `O=C(O)c1ccc2ncccc2c1` was 900 mM (≈ 156000 µg/mL).

With `O=C(NNC(=O)c1ccccc1)c1ccccc1`, the solubility stood at 25.8 mM (≈ 6200 µg/mL). Molecule `O=C(Nc1ccccn1)c1cccnc1` registered a solubility of 1.05 mM (≈ 210 µg/mL). `CCOC(=O)N1CCN(C(=O)OCC)CC1` had a solubility of 187 mM (≈ 43000 µg/mL). `ON=C1CCCCC1` showed a solubility of 159 mM (≈ 18000 µg/mL). In turn, `CCCCCCP(=O)(OCC)OCC` yielded a solubility of 2.7 mM (≈ 600 µg/mL). The same measure, in the same setting: the value for `CCCCP(=O)(CCCC)OCC` was 63 mM (≈ 13000 µg/mL); that for `CCC(C)CC(O)CC` (stereo unspecified) was 13.8 mM (≈ 1800 µg/mL). Turning to `O=C(O)CCCCCCNS(=O)(=O)c1ccccc1`, the solubility was 8.97 mM (≈ 2560 µg/mL). On to `Nc1ccc(S(=O)(=O)c2ccc(Cl)cc2)cc1`, for which the solubility was found to be 0.0747 mM (≈ 20 µg/mL). In turn, `CCCCCCCCOC(=O)C(C)O` (stereo unspecified) registered a solubility of 53.4 mM (≈ 10800 µg/mL). As for `Cc1nnc(N)nc1C`, the solubility worked out at 80.6 mM (≈ 10000 µg/mL). Molecule `O=C1CNC(=S)N1c1ccccc1` registered a solubility of 0.572 mM (≈ 110 µg/mL). With `CCCCC(O)CN(N=Cc1ccc([N+](=O)[O-])o1)C(N)=O` (stereo unspecified), the solubility worked out at 0.268 mM (≈ 80 µg/mL). In the case of `CCCC(C)(O)CCC`, the solubility is 25.9 mM (≈ 3370 µg/mL). `C[C@H](O)C(F)(F)F` yielded a solubility of 2040 mM (≈ 233000 µg/mL).

As for `OCc1ccccc1CO`, the solubility came out at 1140 mM (≈ 158000 µg/mL). Regarding `O=C(O)c1ccc([N+](=O)[O-])c(C(=O)O)c1`, the solubility turned out to be 45.8 mM (≈ 9670 µg/mL).

With `CCC/C(=C\C(=O)O)C(=O)O`, the solubility was determined as 70.2 mM (≈ 11100 µg/mL). Turning to `CCC(C)(C)C1CCC(=NO)C(=NO)C1` (stereo unspecified), the solubility came out at 0.108 mM (≈ 23 µg/mL).

`O=c1ccccc(Br)c1O` gave a solubility of 3.67 mM (≈ 738 µg/mL). In the case of `CCC(NC=O)C(=O)O` (stereo unspecified), the solubility worked out at 256 mM (≈ 33600 µg/mL). Turning to `Cc1cc(C)c([PH](=O)O)c(C)c1`, the solubility was 1.62 mM (≈ 299 µg/mL). The same measure, in the same setting: to `O=C(O)CSCC(=O)O` belongs 2660 mM (≈ 400000 µg/mL); to `O=C(O)CC1NC(=O)NC1=O` (stereo unspecified), 70.5 mM (≈ 11100 µg/mL). `CCOP(=O)(OCC)OCC(C)C` registered a solubility of 66.6 mM (≈ 14000 µg/mL).

As for `O=I(=O)c1ccccc1`, the solubility came to 14.4 mM (≈ 3400 µg/mL). `CCOc1nc(OCC)nc(OCC)n1` returned a solubility of 32.8 mM (≈ 7000 µg/mL). As for `CC(=O)NCCNC(C)=O`, the solubility came to 4740 mM (≈ 683000 µg/mL).

Take `CC(C(=O)O)N(CCC#N)CCC#N` (stereo unspecified): the solubility is 666 mM (≈ 130000 µg/mL). Turning to `CCCCOC(=O)NS(N)(=O)=O`, the solubility came out at 91.7 mM (≈ 18000 µg/mL). `Cc1cccc(CO)c1`: the solubility stood at 409 mM (≈ 50000 µg/mL). In the case of `CCCCC(CC)COC(=O)NS(N)(=O)=O` (stereo unspecified), the solubility was found to be 3.96 mM (≈ 1000 µg/mL). `CCCCCOC(=O)c1cccnc1` yielded a solubility of 4.19 mM (≈ 810 µg/mL). As to `CCCCCOC(=O)CCOCC`, the solubility amounted to 6.37 mM (≈ 1200 µg/mL).

In the case of `CO[C@H](C)[C@H](N)C(=O)O` (racemic), the solubility came out at 3100 mM (≈ 413000 µg/mL). Consider `CCC(=O)Oc1ccc([N+](=O)[O-])cc1`, for which the solubility worked out at 0.128 mM (≈ 25 µg/mL).

`CCCCCCCC(C(=O)O)C(=O)O` yielded a solubility of 9.1 mM (≈ 1840 µg/mL). Same read-out and setting: to `NNC(=O)CC(=O)NN` belongs 757 mM (≈ 100000 µg/mL); to `C=CC1=C(C)C(=Cc2[nH]c(Cc3[nH]c(C=C4NC(=O)C(C)=C4C=C)c(C)c3CCC(=O)O)c(CCC(=O)O)c2C)NC1=O`, 0.0154 mM (≈ 9 µg/mL).

Still in this data set, the particulars now being: 30 °C.
In the case of `CCCCCCCCOC(=O)c1ccc(O)cc1`, the solubility stood at 0.0599 mM (≈ 15 µg/mL). The molecule `CCCCn1cnc2c1c(=O)n(C)c(=O)n2C` registered a solubility of 15.6 mM (≈ 3690 µg/mL). In turn, `COC(=O)c1ccc(O)c(Cl)c1` had a solubility of 1.34 mM (≈ 250 µg/mL). Same read-out and setting: the value for `CCCCCCCOC(=O)c1ccc(O)cc1` was 0.0846 mM (≈ 20 µg/mL); that for `CCCCCOC(=O)c1ccc(O)cc1` was 0.154 mM (≈ 32 µg/mL); that for `CCOC(=O)c1ccc(O)c(Cl)c1` was 0.598 mM (≈ 120 µg/mL).

`CCCOC(=O)c1ccc(O)c(I)c1` showed a solubility of 0.206 mM (≈ 63 µg/mL). `CCc1cccc(C)n1`: the solubility is 150 mM (≈ 18200 µg/mL).

The solubility is how much of the substance goes into solution per volume. Read a low solubility as a poorly soluble substance.
